Source: US20240125767A1, “METHOD FOR EVALUATING DRUG TOXICITY” (Public University Corporation Yokohama City University, priority 2019, published 2024)

Tested on: DILI patient-derived organoid (liver organoid from iPS cells 16-24)
Experimental: (§1) Each of iPS cells derived from human healthy person (1383D2; Kyoto University iPS Research Institute) and iPS cells derived from patients with drug-induced liver injury (16-24; Yokohama City University) were cultured at 5% CO2 and 37° C. for 3 days in a medium obtained by adding 1% B-27 Supplements (GIBCO), BMP4 (25 ng/ml) and CHIR99021 (8 μM) to DMEM/F-12 (Gibco) (10 ml), to induce mesodermal cells.
Each of iPS cells derived from human healthy person (1383D2; Kyoto University iPS Research Institute) and iPS cells derived from patients with drug-induced liver injury (16-24; Yokohama City University) were cultured at 5% CO2 and 37° C. for 5 days in a medium obtained by adding Wnt3a (50 ng/mL) and activin A (100 ng/ml) to a basal medium RPMI (FUJIFILM Corporation) (2 ml), to induce endodermal progenitor cells.
as §1, with “μM) to a basal mixed medium DMEM/F-12 (Gibco)” for “μM) to DMEM/F-12 (Gibco)”, “induce mesodermal progenitor cells. […]” for “induce mesodermal cells.”, “progenitor cells. […]” for “mesodermal cells.”

CC1(C)S[C@@H]2[C@H](NC(=O)[C@H](N)c3ccc(O)cc3)C(=O)N2[C@H]1C(=O)O [Amoxicillin trihydrate, amoxicillin trihydrate]
Toxicity to liver organoid produced using cells derived from a DILI patient, co-cultured with blood cells (result in words): DILI was not observed
